From ChEMBL document CHEMBL1130322, “Anticancer and antiviral effects and inactivation of S-adenosyl-L-homocysteine hydrolase with 5'-carboxaldehydes and oximes synthesized from adenosine and sugar-modified analogues” (J Med Chem, 1997) come the findings set out here.

In assay [1] the test system is Human alphaherpesvirus 1. The assay is described as follows: microbe, parasite or virus in culture.
The next assay deals with FM3A. Kind of assay: cells. To be noted: Mus musculus.
Assay [2] relates to HeLa. The assay is described as follows: cells. To be noted: Homo sapiens.
The subject of assay [3] is Vero. Kind of assay: cells. To be noted: Chlorocebus sabaeus.
The subject of assay [4] is Human betaherpesvirus 5. The assay is described as follows: microbe, parasite or virus in culture.
Assay [5] has as its target T1, Adenosylhomocysteinase (Homo sapiens, UniProt P23526).
Target sequence in this assay (P23526 whole entry): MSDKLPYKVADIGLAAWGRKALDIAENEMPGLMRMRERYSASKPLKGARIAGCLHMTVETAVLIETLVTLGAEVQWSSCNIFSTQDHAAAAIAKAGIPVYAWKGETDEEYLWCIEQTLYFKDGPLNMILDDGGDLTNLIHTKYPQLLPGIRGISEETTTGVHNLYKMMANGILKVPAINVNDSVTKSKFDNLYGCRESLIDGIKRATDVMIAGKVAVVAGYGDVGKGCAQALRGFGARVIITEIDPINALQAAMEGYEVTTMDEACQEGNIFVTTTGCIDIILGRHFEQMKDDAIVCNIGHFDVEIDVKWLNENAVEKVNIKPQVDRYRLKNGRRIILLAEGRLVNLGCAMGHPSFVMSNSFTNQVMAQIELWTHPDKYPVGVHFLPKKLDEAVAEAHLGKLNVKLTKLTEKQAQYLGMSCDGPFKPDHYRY
In assay [6] the test system is Vero. The assay is described as follows: cells. As to conditions: Chlorocebus sabaeus. This is another data set of the same source.
A further assay deals with E6SM. The assay is described as follows: Minimum inhibitory concentration required to effect a microscopically visible change of cell morphology in human embryonic skin-muscle (E6SM) cell culture. The assay is classed as functional. The arrangement: unit not given here.
Assay [7] has as its system MDCK. Kind of assay: cells. To be noted: Canis lupus familiaris.
The test system of another assay is MOLT-4. Kind of assay: cells. To be noted: Homo sapiens.
The test system of another assay is L1210. The assay is described as follows: cells. As to conditions: Mus musculus.
Assay [8] has as its system Human alphaherpesvirus 1. The assay is described as follows: microbe, parasite or virus in culture. This is another data set of the same source.
The subject of assay [9] is Human alphaherpesvirus 1. The assay is described as follows: microbe, parasite or virus in culture. The source holds these as a separate data set.
Assay [10] relates to HEL. Kind of assay: (§1) 50% Cytostatic concentration required to inhibit human erythroleukemic (HEL) cell proliferation. Details: unit not given here. It counts as functional.
Assay [11] has as its target T1, Adenosylhomocysteinase. This is another data set of the same source.
Target sequence in this assay (P23526 2-432 limits assumed): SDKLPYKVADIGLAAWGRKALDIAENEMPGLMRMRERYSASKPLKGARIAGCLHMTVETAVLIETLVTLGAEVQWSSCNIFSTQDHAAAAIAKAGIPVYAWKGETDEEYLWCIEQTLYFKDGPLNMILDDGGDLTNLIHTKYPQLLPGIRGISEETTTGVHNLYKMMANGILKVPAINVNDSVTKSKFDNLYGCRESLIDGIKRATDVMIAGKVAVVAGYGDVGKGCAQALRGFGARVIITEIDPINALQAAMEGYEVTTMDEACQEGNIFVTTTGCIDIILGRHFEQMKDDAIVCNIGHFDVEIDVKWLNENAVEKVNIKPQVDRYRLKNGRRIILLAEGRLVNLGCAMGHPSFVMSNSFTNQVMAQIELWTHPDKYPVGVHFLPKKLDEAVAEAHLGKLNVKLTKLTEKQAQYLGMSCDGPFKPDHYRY
The test system of assay [12] is MDCK. It counts as functional, Canis lupus familiaris. The arrangement: unit not given here.
The test system of a further assay is Human alphaherpesvirus 2. The assay is described as follows: microbe, parasite or virus in culture.
The test system of assay [13] is Respiratory syncytial virus. Kind of assay: microbe, parasite or virus in culture. As to conditions: human respiratory syncytial virus, HeLa.
A further assay has as its system CCRF-CEM. Kind of assay: cells. To be noted: Homo sapiens.
Assay [14] concerns Vero. The assay is described as follows: cells. To be noted: Chlorocebus sabaeus. This is another data set of the same source.
Assay [15] relates to MDCK. The assay is described as follows: cells. To be noted: Canis lupus familiaris. The source holds these as a separate data set.
In assay [16] the test system is Vero. The assay is described as follows: Minimum inhibitory concentration required to effect a microscopically visible change of cell morphology in Vero cell culture. It counts as functional, Chlorocebus sabaeus. The arrangement: unit not given here.
Assay [17] deals with Vero. Kind of assay: cells. As to conditions: Chlorocebus sabaeus. The source holds these as a separate data set.
Assay [18] relates to Vero. The assay is described as follows: cells. To be noted: Chlorocebus sabaeus. This is another data set of the same source.
In assay [19] the test system is Vero. Kind of assay: cells. As to conditions: Chlorocebus sabaeus. This is another data set of the same source.
The subject of assay [20] is Human betaherpesvirus 5. Kind of assay: microbe, parasite or virus in culture. This is another data set of the same source.
The test system of assay [21] is HeLa. The assay is described as follows: Minimum inhibitory concentration required to effect a microscopically visible change of cell morphology in HeLa cell culture. It counts as functional, Homo sapiens. The arrangement: unit not given here.
Assay [22] has as its system HeLa. The assay is described as follows: cells. As to conditions: Homo sapiens. This is another data set of the same source.
In assay [23] the test system is Human alphaherpesvirus 1. Kind of assay: microbe, parasite or virus in culture. This is another data set of the same source.
The test system of assay [24] is Human alphaherpesvirus 1. Kind of assay: microbe, parasite or virus in culture. This is another data set of the same source.
The test system of assay [25] is HEL. The description is as §1. The assay is classed as functional.
Assay [26] concerns Human alphaherpesvirus 1. The assay is described as follows: microbe, parasite or virus in culture. The source holds these as a separate data set.

In brackets after ≈: the same amount, converted by molar mass. Where only a bound is given, the exact number is not on record here.

Consider `CO/N=C/[C@H]1OC(n2cnc3c(N)ncnc32)[C@H](O)[C@@H]1O` (some centres undefined), for which the EC50 – broadly, the concentration at which the effect is half-maximal – was over 200 µg/mL in the assay on Human alphaherpesvirus 1 [1]; over 200 µg/mL in the assay on HeLa [2]; 150 µg/mL (≈ 510 µM) in the assay on Vero [3]; over 10 µg/mL in the assay on Human betaherpesvirus 5 [4]; over 100 µg/mL in the assay on Vero [6]; 0.8 µg/mL (≈ 2.72 µM) in the assay with MDCK [7]. For the same molecule, the 50% effective concentration (EC50) is over 200 µg/mL in the assay on Human alphaherpesvirus 1 [8]; over 200 µg/mL in the assay with Human alphaherpesvirus 1 [9]; over 200 µg/mL in the assay on Human alphaherpesvirus 2; over 200 µg/mL in assay [13]; over 100 µg/mL in the assay on Vero [14]; 4 µg/mL (≈ 13.6 µM) in the assay on MDCK [15]. The EC50 in the assay on Vero [17] is over 100 µg/mL; with Vero [18] it was over 100 µg/mL; with Vero [19] it was over 100 µg/mL; with Human betaherpesvirus 5 [20] it was over 10 µg/mL; with HeLa [22] it was over 200 µg/mL; in the assay on Vaccinia virus, 100 µg/mL (≈ 340 µM). The IC50 – broadly, the concentration that gives 50% inhibition – in the assay with FM3A is 19 µg/mL (≈ 64.6 µM); in the assay on MOLT-4, 218 µg/mL (≈ 741 µM); in the assay on L1210 it was 271 µg/mL (≈ 921 µM); in the assay on CCRF-CEM, 330 µg/mL (≈ 1120 µM). Moreover, at Adenosylhomocysteinase [5], the Ki (commonly a measure of affinity in units of concentration, obtained from inhibition or displacement) stood at 0.0946 µM. The MIC with E6SM is 400; against MDCK [12] it was 20; against Vero [16] it was over 200; with HeLa [21], over 200. The molecule further showed a CC50 in the assay on HEL [10] of over 50. In addition, the k2 at Adenosylhomocysteinase [11] came to 0.048 min⁻¹.

For the molecule `Nc1ncnc2c1ncn2[C@@H]1O[C@H](C=NO)[C@@H](O)[C@@H]1O`, the EC50 in the assay with Human alphaherpesvirus 1 [23] was 70 µg/mL (≈ 250 µM); in the assay on Human alphaherpesvirus 1 [24], over 100 µg/mL; in the assay with Vero [3], over 100 µg/mL; in the assay on Human betaherpesvirus 5 [4], over 10 µg/mL; with Vero [6] it was over 40 µg/mL; with Human alphaherpesvirus 1 [8], 70 µg/mL (≈ 250 µM). For the same molecule, the EC50 in the assay with Human alphaherpesvirus 2 is over 100 µg/mL; in the assay on Vero [14], over 40 µg/mL; in the assay on Vero [17] it was over 40 µg/mL; in the assay on Vero [19], over 40 µg/mL; with Human betaherpesvirus 5 [20], over 10 µg/mL; in the assay with Vaccinia virus it was 20 µg/mL (≈ 71.4 µM). Besides, the IC50 worked out at 12.7 µg/mL (≈ 45.3 µM) with FM3A, 16.4 µg/mL (≈ 58.5 µM) with MOLT-4, 10.5 µg/mL (≈ 37.5 µM) in the assay on L1210 and 15 µg/mL (≈ 53.5 µM) in the assay on CCRF-CEM. This molecule also had an MIC against E6SM of over 200. For the same molecule, in the assay with HEL [25], the CC50 is reported as 34.

As to `CCO/N=C/[C@H]1OC(n2cnc3c(N)ncnc32)[C@H](O)[C@@H]1O` (some centres undefined), the EC50 is over 200 µg/mL in the assay on Human alphaherpesvirus 1 [23]; over 200 µg/mL in the assay on Human alphaherpesvirus 1 [24]; over 200 µg/mL in the assay on HeLa [2]; over 200 µg/mL with Vero [3]; over 4 µg/mL in the assay on Human betaherpesvirus 5 [4]; over 100 µg/mL in the assay on Vero [6]. The EC50 with MDCK [7] was 0.8 µg/mL (≈ 2.59 µM); in the assay with Human alphaherpesvirus 1 [8] it was over 200 µg/mL; with Human alphaherpesvirus 2 it was over 200 µg/mL; in assay [13], over 200 µg/mL; in the assay on Vero [14], over 100 µg/mL; in the assay on MDCK [15], 1.2 µg/mL (≈ 3.89 µM). Also, the EC50 is over 100 µg/mL with Vero [17]; over 100 µg/mL in the assay with Vero [18]; over 100 µg/mL in the assay on Vero [19]; over 10 µg/mL in the assay with Human betaherpesvirus 5 [20]; over 200 µg/mL in the assay on HeLa [22]; 100 µg/mL (≈ 324 µM) in the assay with Vaccinia virus. The IC50 was over 500 µg/mL with FM3A, over 500 µg/mL in the assay on MOLT-4, 295 µg/mL (≈ 957 µM) in the assay with L1210 and over 500 µg/mL in the assay on CCRF-CEM. The molecule further gave an inhibition constant Ki on Adenosylhomocysteinase [5] of 0.111 µM. In addition, the MIC against E6SM is recorded as over 200; against MDCK [12], 4; with Vero [16], over 200; against HeLa [21], over 200. In the assay on HEL [25], the CC50 is on record as over 50. Further, at Adenosylhomocysteinase [11], the k2 came out at 0.037 min⁻¹.

Regarding `Nc1ncnc2c1ncn2[C@@H]1O[C@H](C=NO)[C@@H](O)[C@H]1O`, the EC50 in the assay with Human alphaherpesvirus 1 [23] is over 4 µg/mL; with Human alphaherpesvirus 1 [24], over 4 µg/mL; in the assay on HeLa [2] it was over 40 µg/mL; in the assay with Vero [3] it was over 1 µg/mL; with Human betaherpesvirus 5 [4], 0.3 µg/mL (≈ 1.07 µM); in the assay on Vero [6] it was over 0.4 µg/mL. Also, the EC50 with MDCK [7] is 0.8 µg/mL (≈ 2.85 µM); with Human alphaherpesvirus 1 [8] it was over 4 µg/mL; with Human alphaherpesvirus 2 it was over 4 µg/mL; in [13] it was under 4 µg/mL; in the assay on Vero [14] it was over 1 µg/mL; in the assay on MDCK [15], over 0.8 µg/mL. Besides, the EC50 is over 0.4 µg/mL in the assay on Vero [17]; over 0.4 µg/mL with Vero [18]; over 1 µg/mL in the assay with Vero [19]; 0.25 µg/mL (≈ 0.892 µM) in the assay on Human betaherpesvirus 5 [20]; over 4 µg/mL in the assay on HeLa [22]; over 4 µg/mL with Vaccinia virus. In addition, the IC50 with FM3A was determined as 2.3 µg/mL (≈ 8.21 µM); in the assay on MOLT-4 it was 5.4 µg/mL (≈ 19.3 µM); in the assay on L1210 it was 1.8 µg/mL (≈ 6.42 µM); with CCRF-CEM, 2.9 µg/mL (≈ 10.3 µM). The molecule also showed a Ki at Adenosylhomocysteinase [5] of 0.67 µM. The MIC against E6SM is 7; against MDCK [12] it was 0.8; in the assay on Vero [16] it was over 1; in the assay on HeLa [21], over 4. This molecule also showed a CC50 with HEL [25] of 0.7. Also, the k2 at Adenosylhomocysteinase [11] is 0.16 min⁻¹.

With `O=c1[nH]c(=O)n([C@H]2C[C@H](O)[C@@H](CO)O2)cc1/C=C/Br` [BRIVUDINE], the EC50 with Human alphaherpesvirus 1 [1] is 10 µg/mL (≈ 30 µM); in the assay on Vero [3], over 400 µg/mL; with Human betaherpesvirus 5 [4], over 40 µg/mL; with Vero [6] it was over 400 µg/mL; with Human alphaherpesvirus 1 [8], 0.04 µg/mL (≈ 0.12 µM); in the assay on Human alphaherpesvirus 1 [9] it was over 400 µg/mL. Moreover, the concentration for a half-maximal effect (EC50) with Vero [14] is over 400 µg/mL; in the assay on Human alphaherpesvirus 1 [26], over 400 µg/mL; in the assay on Vero [17], over 400 µg/mL; with Vero [19] it was over 400 µg/mL; with Human betaherpesvirus 5 [20] it was over 40 µg/mL; in the assay with Vaccinia virus, 0.7 µg/mL (≈ 2.1 µM). This molecule also showed an MIC against E6SM of over 400. In addition, the CC50 in the assay on HEL [10] was over 40.
